What was measured:
[1] = In vivo CPT plasma concentrations after single IV injection; settings: IV injection of free CPT (2 mg/kg)
Procedure: Values are reported as mean ±SD.
(§1) This was determined by preparing PEGylated 6 μm polystyrene MPs with three copies of the norvaline (Nva) α-amino acid prodrug of CPT. […] Anti-cancer efficacy was evaluated in an orthotopic rat lung cancer model and compared to a bolus injection of CPT.

A549 cell = experiment: Anti-cancer efficacy in orthotopic rat lung cancer model (A549 cell inoculation); type: in vivo, nude rats; settings: IV every 3 days for 27 days; free CPT 2 mg/kg, CPT-Nva-MPs 0.2 mg/kg CPT
Procedure: as §1
The treatment was conducted every 3 days for 27 days. The day after the last treatment, all animals were euthanized, and organs (lung, heart, […], spleen and […]) were dissected and weighed. The organs were fixed in 10% neutral buffered formalin for H & E staining.

caspase 3/7 = settings: A549 cells, 24 hours; 1 μM paclitaxel alone or with 1 mM R-ALA
Procedure: Cell viability (FIG. 11—left) and caspase 3/7 activation (apoptosis) (FIG. 11—right) of A549 cells were evaluated in response to a low dose (˜EC5-EC20) of paclitaxel alone (1 μM), low dose paclitaxel +R-ALA (1 mM) or a solvent control (0.1% DMSO). Cell viability was determined with AlamarBlue® assay. Caspase 3/7 activation was determined as a measure of apoptosis using a fluorometric assay kit (Biovision, Mountain View, Calif.). A549 cells were treated with solvent control (0.1% DMSO), 1 μM paclitaxel, and 1 μM paclitaxel+1 mM R-ALA for 24 hours.

Structure (SMILES) | systemic exposure (CPT plasma) [1] | areas of lung cancer versus untreated animals (A549 cell) | caspase 3/7 activation relative to controls (caspase 3/7)
CC[C@@]1(O)C(=O)OCc2c1cc1n(c2=O)Cc2cc3ccccc3nc2-1 [free CPT, camptothecin] | high but short-lived systemic exposures | smaller areas of lung cancer | –
CC(=O)O[C@H]1C(=O)[C@@]2(C)[C@H]([C@H](OC(=O)c3ccccc3)[C@]3(O)C[C@H](OC(=O)[C@H](O)[C@@H](NC(=O)c4ccccc4)c4ccccc4)C(C)=C1C3(C)C)[C@]1(OC(C)=O)CO[C@@H]1C[C@@H]2O [paclitaxel] | – | – | 1.5 fold
